This is an account of results in patent US8703812B2, “Protein synthesis required for long-term memory is induced by PKC activation on days preceding associative learning” (Blanchette Rockefeller Neurosciences Institute, priority 2005, dated 2014).

One test deals with PKC-α. As to conditions: 20 μM-5 QμM Lactacysteine; cited from earlier work.
Another test concerns Hermissenda Crassicornis. Briefly: Pavlovian conditioning of Hermissenda (retention of conditioned response). Type of test: in vivo. As to conditions: for effect on bryostatin memory enhancement: 6 TE with bryostatin; for effect on long-term retention: anisomycin 1 μg/ml for four hours post-training (2 TE) after three-day bryostatin treatment. The method, then: Bryostatin exposure—Specimens of Hermissenda Crassicornis were maintained in artificial sea water (ASW) at 15° for three days in perforated 50-ml conical centrifuge tubes before starting experiments. Bryostatin, purified from the marine bryozoan Bugula neritina, was dissolved in EtOH and diluted to its final concentration in ASW. […] For selected experiments lactacysteine (10 μM) or anisomycin was added to the ASW.
Bryostatin effects on Hermissenda behavior and biochemistry were produced by adding the drug to the bathing medium within an 8 cm long, 1 cm diameter test tube housing each individual animal.
Pavlovian conditioning of Hermissenda involves repeated pairings of a neutral stimulus, light, with an unconditioned stimulus, orbital shaking. (See, Lederhendler et al. (24) and Epstein et al. (6)). A rotation/shaking stimulus excites the statocyst hair cells and thereby elicits an unconditioned response: a brisk contraction of the muscular undersurface called a foot, accompanied by adherence or “clinging” to the surface that supports the foot. Before conditioning, light elicits a weakly positive phototaxis accompanied by lengthening of the foot. After sufficient light-rotation pairings, light no longer elicits phototaxis, but instead elicits a new response (24): the “clinging” and foot shortening previously elicited only by the unconditional stimulus (FIG. 1). Thus, the meaning of the unconditioned stimulus, rotation or orbital shaking, has been transferred to the conditioned stimulus and is manifested by a light-elicited foot contraction—a negative change of foot length. This conditioned response to light can last for weeks, is not produced by randomized light and rotation, is stimulus-specific, and shares the other defining characteristics of mammalian Pavlovian Conditioning.
Pavlovian conditioning of Hermissenda has well-defined training parameters that produce progressively longer-lasting retention of the learned conditioned response. Two training events (2 TE) of paired light and orbital shaking (see “Methods”), for example, induce a learned conditioned response (light-elicited foot contraction or shortening) that persists without drug treatment for approximately 7 minutes. Four to six training events (4-6 TE) induce a conditioned response that persists up to several hours, but disappears approximately by 1 day after training. Nine TE produces long-term associative memory lasting many days and often up to two weeks.

Test [1] deals with Rat hippocampal H19-7/IGF-IR cells. Put plainly: Protein synthesis by [35S]Methionine incorporation. Type of test: cell-based. Particulars: PKC inhibitor Ro-32 also present. The method, then:
FIG. 17 depicts the effects of bryostatin on protein synthesis. Rat IGF-IR cells were incubated for 30 minutes with 0.28 nM bryostatin for incubation times ranging from 1 to 79 hours. [^35S]Methionine (9.1 μCi) was then added to the medium followed by analysis of radiolabel.
Rat hippocampal H19-7/IGF-IR cells (ATCC) were plated onto poly-L-lysine coated plates and grown at 35° in DMEM/10% FCS for several days until approx. 50% coverage was obtained. The cells were then induced to differentiate into a neuronal phenotype by replacing the medium with 5 ml N2 medium containing 10 ng/ml basic fibroblast growth factor and grown in T-25 flasks at 39° C. (26). Various concentrations of bryostatin (0.01-1.0 nM) were then added in 10 μl aqueous solution. After a specified interval, the medium was removed and the cells were washed with PBS, removed by gentle scraping, and collected by centrifugation at 1000 rpm for 5 min.
In fact, we found here that a single 30-minute exposure to 0.28 nM bryostatin increased overall protein synthesis (FIG. 17), measured by incorporation of ^35-S Methionine in the last ½ hour before collecting the neurons, by 20% within 24 h, increasing to 60% by 79 hours after the bryostatin exposure.

A further test has as its system calexcitin. Put plainly: Calexcitin immunostaining in B-photoreceptors. Type of test: in vivo, Hermissenda. As for the experimental part:
Following experimental treatments and testing, animals were rapidly decapitated, the central nervous systems (CNS) removed and then fixed in 4% para-formaldehyde in 20 mM Tris-buffered (pH 8) natural seawater (NSW; 0.2 μm micropore-filtered). The CNSs were then embedded in polyester wax (20), sectioned (6 μm) and immunostained using a biotinylated secondary antibody coupled to avidin-bound microperoxidase (ABC method, Vector), Aminoethylcarbazole (AEC) was used as the chromogen. The primary polyclonal antibody (designated 25U2) was raised in rabbits from the full length calexcitin protein extracted from squid optic lobes. Gray-scale intensity measures were done from digital photomicrographs on circumscribed cytoplasmic areas of the B-photoreceptors minus the same background area (non-staining neuropile).

Another test has as its system PKC. Put plainly: Protein kinase C assay (histone phosphorylation) in Hermissenda nervous systems. Type of test: in vivo. As to conditions: anisomycin (1.0 ng/ml) with each bryostatin (0.25 ng/ml) exposure on three successive days. As for the experimental part: Bryostatin exposure—Specimens of Hermissenda Crassicornis were maintained in artificial sea water (ASW) at 15° for three days in perforated 50-ml conical centrifuge tubes before starting experiments. Bryostatin, purified from the marine bryozoan Bugula neritina, was dissolved in EtOH and diluted to its final concentration in ASW. Animals were incubated with bryostatin in ASW for 4 hr, then rinsed with normal ASW. For selected experiments lactacysteine (10 μM) or anisomycin was added to the ASW.
Cells were homogenized by sonication (5 sec, 25 W) in 100 μl of 10 mM Tris-HCl pH 7.4 buffer containing 1 mM EGTA, 1 mM PMSF, and 50 mM NaF. Homogenate was transferred to a polyallomer centrifuge tube and was centrifuged at 100,000×g for 10 min at 4°. The supernatant was removed and immediately frozen on dry ice. The particulate fraction was resuspended by sonication in 100 μl of the same buffer and stored at −80°. To measure PKC, 10 μl of cytosol or particulate fraction was incubated for 15 min at 37° in the presence of 10 μM histones, 4.89 mM CaCl2, 1.2 μg/μl phosphatidyl-L-serine, 0.18 μg/μl 1,2-dioctanoyl-sn-glycerol, 10 mM MgCl2, 20 mM HEPES (pH 7.4), 0-8 mM EDTA, 4 mM EGTA, 4% glycerol, 8 μg/ml aprotinin, 8 μg/ml leupeptin, and 2 mM benzamidine. 0.5 μCi [γ^32P]ATP was added and ^32P-phosphoprotein formation was measured by adsorption onto phosphocellulose as described previously (25). This assay was used with slight adjustments for either Hermissenda nervous system homogenates or cultured mammalian neuron homogenates
Intact Hermissenda were exposed for 4 hour intervals to bryostatin (0.28 nM) on successive days under conditions described (“Behavioral Pharmacology”). Histone phosphorylation (See “Methods”) in isolated circumesophageal nervous systems was then measured in the cytosol fraction. […] (FIG. 12, 13). […] After an initial activation (via translocation), this bryostatin effect is most likely due to increased synthesis of PKC, consistent with the increased levels of calexcitin induced by bryostatin, but not directly correlated with repeated bryostatin exposure.

For another test, the system named is sAPP secretion. As to conditions: cited from earlier work.
Test [2] has as its system diacylglycerol-protein kinase C activation. Particulars: aorta of diabetic rats; cultured rat smooth muscle cells, elevated glucose; cited from earlier work.
The conditions of test [3]: vitamin E 2000 IU/day; cited from earlier work.

Turning to `CC(=O)N[C@@H](CSC(=O)[C@]1([C@@H](O)C(C)C)NC(=O)[C@H](C)[C@@H]1O)C(=O)O` [Lactacysteine], the “degradation of PKC-α” value with PKC-α is given as “largely prevented”. In addition, the “acquisition or retention of behavioral training” value in the test with Hermissenda Crassicornis (lactacysteine only 10 μM 4 h, 2-paired TEs 24 hrs later) was “no acquisition or retention of behavioral training”. For the same molecule, the “duration of memory after single bryostatin exposure followed by 2 TE” value in the test on Hermissenda Crassicornis (with lactacysteine) is on record as “many days”.
Regarding `CN(C)C[C@H]1CCn2c(c(C3=C(c4cn(C)c5ccccc45)C(=O)NC3=O)c3ccccc32)C1` [Ro-32], the “effect on bryostatin memory enhancement” value with Hermissenda Crassicornis was “blocked”. In addition, the “effect on 6 TE plus bryostatin conditioning” value with Hermissenda Crassicornis (Ro-32 applied pre-training (during dark adaptation)) is on record as “blocked”. For the same molecule, in the test on Hermissenda Crassicornis (Ro-32 during the training plus bryostatin), the “effect on memory consolidation” value is “did prevent memory consolidation”. Moreover, the “effect on long-term memory induction” value in the test with Hermissenda Crassicornis (Ro-32 immediately after bryostatin plus training) is reported as “did not prevent long-term memory induction”. For the same molecule, the results for the “effect on bryostatin-induced increase of protein synthesis” value in test [1] and in test [1] (listed as Ro-32-0432) were “partially blocked” and “increasing significantly less”, respectively. Further, the “effect on learning-specific calexcitin increases in Type B cell” value in the test on calexcitin (Ro-32) was “prevented both learning and learning-specific calexcitin increases”.
As for `COc1ccc(C[C@H]2NC[C@H](O)[C@H]2OC(C)=O)cc1` [anisomycin], the “effect on bryostatin memory enhancement” value in the test on Hermissenda Crassicornis is given as “blocked”. Also, in the test with Hermissenda Crassicornis (4 hour anisomycin treatment, no bryostatin), the “effect on memory retention produced by 9 TE” value was “eliminated all memory retention”. The “effect on long-term retention” value is “did not prevent memory retention” in the test on Hermissenda Crassicornis and “did not prevent long-term retention” with Hermissenda Crassicornis (listed as Anisomycin). The “effect on retention produced by single 4-hour bryostatin plus 2 TE” value with Hermissenda Crassicornis (anisomycin 1.0 μg/ml immediately post-training, tested after 4 h) is reported as “showed no CR”. For the same molecule, the “effect on memory formation” value in the test with Hermissenda Crassicornis (anisomycin after training with and without bryostatin) is “completely blocked memory formation”. Moreover, the “effect on long-term memory” value is “did not prevent long-term memory” with Hermissenda Crassicornis (anisomycin during training with and without bryostatin); “long-term memory was eliminated” in the test on Hermissenda Crassicornis (anisomycin with each of three successive daily 4 hour bryostatin exposures, 2 TE one day after). For the same molecule, the “effect on calexcitin level” value in the test with calexcitin (anisomycin immediately after 2-paired TEs following 3 days of 4-hr bryostatin) is “did not reduce this calexcitin level”. In addition, the “effect on PKC activity, cytosolic and membrane fractions” value with PKC is “markedly reduced the PKC activity”.
With `CN[C@@H]1C[C@H]2O[C@@](C)([C@@H]1OC)n1c3ccccc3c3c4c(c5c6ccccc6n2c5c31)C(=O)NC4` [staurosporine], in the test on sAPP secretion (control and AD fibroblasts), the “effect on benzolactam-induced sAPP secretion” value is recorded as “eliminated the effects of benzolactam”.
Regarding benzolactam, the sAPP secretion result with sAPP secretion (benzolactam-treated cells) is on record as “enhance sAPP secretion over basal levels”. Moreover, in the test on sAPP secretion (control fibroblasts), the “concentration giving significant increases of sAPP secretion” value is 10 µM.
Take vitamin E: the “diacylglycerol-protein kinase C activation” value in test [2] was “normalize diacylglycerol-protein kinase C activation”. Moreover, in test [3], the clinical outcome is “reduced mortality and morbidity, but did not enhance cognitive abilities”.
